Test results: US20260132125A1, “PESTICIDALLY ACTIVE FUSED BICYCLIC HETEROAROMATIC COMPOUNDS” (priority 2022, published 2026)

Columns and labels:
Format in all cases: in vivo
Euschistus heros = assay: Example B3: activity against Euschistus heros (neotropical brown stink bug), soybean leaves; conditions: for percent effect (mortality or growth inhibition) at 200 ppm: 120 h, N2 nymphs, 5 days after infestation, read-out: effect in at least one of the two categories (mortality or growth inhibition)
Protocol: Soybean leaves on agar in 24-well microtiter plates were sprayed with aqueous test solutions prepared from 10′000 ppm DMSO stock solutions. After drying the leaves were infested with N2 nymphs. The samples were assessed for mortality and growth inhibition in comparison to untreated samples 5 days after infestation. The following compounds gave an effect of at least 80% in at least one of the two categories (mortality or growth inhibition) at an application rate of 200 ppm: […]

Spodoptera littoralis = assay: Example B6: activity against Spodoptera littoralis (Egyptian cotton leaf worm), cotton leaf discs; conditions: foliar, 72 h, 200 ppm, L1 larvae, 3 days after infestation, read-out: control (at least one of mortality, anti-feedant effect, growth inhibition)
Summary of the method: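 Cotton leaf discs on agar were sprayed with aqueous test solutions made from 10′000 ppm DMSO stocks, dried, then infested with five L1 larvae. Mortality, anti-feeding effect and growth inhibition were scored against untreated discs 3 days after infestation; control means any category exceeds untreated.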

Myzus persicae [1] = assay: Example B4: activity against Myzus persicae (green peach aphid), intrinsic activity; conditions: 120 h, test rate 12 ppm, 5 days after infestation
Summary of the method: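 Mortality was read 5 days after infestation. Aphids on pea seedlings fed through a stretched Parafilm membrane on inverted 24-well plates containing sucrose solution mixed with test compound, which was diluted from 10′000 ppm DMSO stock.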

Chilo suppressalis = assay: Example B1: activity against Chilo suppressalis (striped rice stemborer), artificial diet; conditions: 144 h, 200 ppm, L2 larvae, 6 days after infestation, read-out: control (at least one of mortality, anti-feedant effect, growth inhibition)
Summary of the method: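 Diet-incorporation surface assay: aqueous dilutions of 10'000 ppm DMSO stock applied to artificial diet, dried; 6-8 L2 larvae/well; read day 6 post-infestation for mortality, antifeedant effect, growth inhibition vs untreated. Active if any category above untreated.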

[2] = system: Carpocapsa (Cydia) pomonella; assay: Example B10: Carpocapsa (Cydia) pomonella (codling moth), larvicide, feeding/contact, diet cubes; conditions: 336 h, L1 larvae, 14 days after infestation, read-out: effect in at least one of the two categories (mortality or growth inhibition)
Protocol: Diet cubes coated with paraffin were sprayed with diluted test solutions in an application chamber. After drying off the treated cubes (10 replicates) were infested with 1 L1 larvae. Samples were incubated at 26-27° C. and checked 14 days after infestation for mortality and growth inhibition. The following compounds gave an effect of at least 80% in at least one of the two categories (mortality or growth inhibition) at an application rate of 50 ppm: […]

Plutella xylostella [3] = assay: Example B5: activity against Plutella xylostella (diamond back moth), artificial diet, eggs; conditions: 192 h, 8 days after infestation, read-out: effect in at least one of the two categories (mortality or growth inhibition)
Summary of the method: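 Scoring at 8 days post-infestation compared mortality and growth inhibition with untreated controls, on diet treated at 200 ppm with water-diluted DMSO stock solutions. Diamondback moth eggs were placed on the dried diet in 24-well plates.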

Diabrotica balteata = assay: Example B2: activity against Diabrotica balteata (corn root worm), maize sprouts; conditions: 96 h, L2 larvae, 4 days after infestation, read-out: effect in at least one of the two categories (mortality or growth inhibition)
Summary of the method: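 At 200 ppm, test solutions diluted in water from 10′000 ppm DMSO stocks were spray-applied to maize sprouts set on agar. Once dry, each well received 6–10 second-instar larvae. Four days later, mortality and growth inhibition were compared with untreated controls.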

Pseudoplusia includens = assay: Example B9: Pseudoplusia includens (soybean looper), larvicide, feeding/contact, soybean plants; conditions: Chrysodeixis includens; for percent effect (mortality or growth inhibition) at 50 ppm: 120 h, L2 larvae, 5 days after infestation, read-out: effect in at least one of the two categories (mortality or growth inhibition)
Summary of the method: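 Soybean plants sprayed, cut and held in dishes on wet filter paper; infested 1 d after application with 5 L2 larvae. Mortality and growth inhibition assessed 5 days after infestation; tested at 50 ppm.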

Myzus persicae [4] = assay: Example B7a: Myzus persicae feeding/contact activity, sunflower leaf discs; conditions: foliar, 144 h, mixed ages, 6 days after infestation
Protocol: (§1) Sunflower leaf discs were placed onto agar in a 24-well microtiter plate and sprayed with aqueous test solutions prepared from 10′000 ppm DMSO stock solutions. After drying, the leaf discs were infested with an aphid population of mixed ages. The samples were assessed for mortality 6 days after infestation.

Plutella xylostella [5] = assay: B14b: Plutella xylostella (diamond back moth), larvicide L3, feeding/contact, Chinese cabbage; conditions: 3 ppm
Excerpt: Activity of compounds P5, P17 and P21 according to the preparatory examples and of a compound from WO 21/083936 against Spodoptera littoralis (Example B6 above), Chilo suppressalis (Example B1 above), Diabrotica balteata (Example B14a below), Plutella xylostella (Example B14b below) and Pseudoplusia includens (Example B9 above) is summarized in Table B14. B14a: Diabrotica balteata (Corn root worm). Larvicide, feeding/contact 3 Corn seedlings were placed on wetted filter paper in plastic cups, and 3 ml of diluted test solutions were pipetted onto them. The cups were infested with 10 L2 larvae and checked for mortality and growth regulation 5 days after treatment. B14b: Plutella xylostella (Diamond back moth). Larvicide L3, feeding/contact Chinese cabbage plants were sprayed with diluted test solutions in an application chamber. Cut off leaves were placed into petri dishes with wetted filter paper and infested 1 day after application with 10 L3 larvae. Samples were assessed 4 days after infestation for mortality and growth regulation.

Myzus persicae [6] = assay: Example B7b: Myzus persicae feeding/contact activity, eggplant leaf discs; conditions: foliar, 144 h, mixed ages, 6 days after infestation
Protocol: as §1, with “Eggplant” for “Sunflower”

Tetranychus urticae = assay: Example B8: activity against Tetranychus urticae (two-spotted spider mite), bean leaf discs; conditions: foliar, 192 h, mixed population (mobile stages), 8 days after infestation
Protocol: Bean leaf discs on agar in 24-well microtiter plates were sprayed with aqueous test solutions prepared from 10′000 ppm DMSO stock solutions. After drying the leaf discs were infested with a mite population of mixed ages. The samples were assessed for mortality on mixed population (mobile stages) 8 days after infestation.

SMILES | percent effect (mortality or growth inhibition) at 200 ppm (Euschistus heros) [%] | percent control (mortality, anti-feedant effect or growth inhibition) at 200 ppm (Spodoptera littoralis) [%] | mortality at 12 ppm (Myzus persicae [1]) [%] | percent control (mortality, anti-feedant effect or growth inhibition) at 200 ppm (Chilo suppressalis) [%] | percent effect (mortality or growth inhibition) at 50 ppm [2] [%] | percent effect (mortality or growth inhibition) at 200 ppm (Plutella xylostella [3]) [%] | percent effect (mortality or growth inhibition) at 200 ppm (Diabrotica balteata) [%] | percent effect (mortality or growth inhibition) at 50 ppm (Pseudoplusia includens) [%] | mortality at 200 ppm (Myzus persicae [4]) [%] | mortality at 200 ppm (Euschistus heros) [%] | mortality at 3 ppm (Plutella xylostella [5]) [%] | mortality at 3 ppm (Pseudoplusia includens; Pseudoplusia includens, 3 ppm) [%] | mortality at 200 ppm (Myzus persicae [6]) [%] | mortality at 200 ppm (Tetranychus urticae) [%]
C[C@H](Nc1ncnc2c(C(F)(F)F)cc(I)cc12)c1ncnn1-c1cc(C(N)=O)ncn1 [Compound P1, 6-[5-[(1S)-1-[[6-iodo-8-(trifluoromethyl)quinazolin-4-yl]amino]ethyl]-1,2,4-triazol-1-yl]pyrimidine-4-carboxamide] | ≥ 80 | ≥ 80 | ≥ 80 | ≥ 80 | ≥ 80 | ≥ 80 | ≥ 80 | ≥ 80 |  |  |  |  |  | 
C[C@H](Nc1ncnc2c(Cl)cc(I)cc12)c1ncnn1-c1cc(C(N)=O)ncn1 [Compound P2, 6-[5-[(1S)-1-[(8-chloro-6-iodo-quinazolin-4-yl)amino]ethyl]-1,2,4-triazol-1-yl]pyrimidine-4-carboxamide] |  | ≥ 80 | ≥ 80 | ≥ 80 | ≥ 80 | ≥ 80 | ≥ 80 | ≥ 80 | ≥ 80 |  |  |  |  | 
CNC(=O)c1cc(-n2ncnc2[C@H](C)Nc2ncnc3c(C(F)(F)F)cc(Cl)cc23)ncn1 [Compound P3, 6-[5-[(1S)-1-[[6-chloro-8-(trifluoromethyl)quinazolin-4-yl]amino]ethyl]-1,2,4-triazol-1-yl]-N-methyl-pyrimidine-4-carboxamide] | ≥ 80 | ≥ 80 | ≥ 80 | ≥ 80 | ≥ 80 | ≥ 80 | ≥ 80 | ≥ 80 |  |  |  |  |  | 
CNC(=O)c1cc(-n2ncnc2[C@H](C)N(C)c2ncnc3c(C(F)(F)F)cc(Cl)cc23)ncn1 [Compound P9, 6-[5-[(1S)-1-[[6-chloro-8-(trifluoromethyl)quinazolin-4-yl]-methyl-amino]ethyl]-1,2,4-triazol-1-yl]-N-methyl-pyrimidine-4-carboxamide] | ≥ 80 | ≥ 80 | ≥ 80 | ≥ 80 | ≥ 80 | ≥ 80 | ≥ 80 | ≥ 80 | ≥ 80 |  |  |  |  | 
C[C@H](Nc1ncnc2c(Br)cc(Br)cc12)c1ncnn1-c1cc(C(N)=O)ncn1 [Compound P10, 6-[5-[(1S)-1-[(6,8-dibromoquinazolin-4-yl)amino]ethyl]-1,2,4-triazol-1-yl]pyrimidine-4-carboxamide] |  | ≥ 80 | ≥ 80 | ≥ 80 | ≥ 80 | ≥ 80 | ≥ 80 | ≥ 80 |  | 0 | 100 | 80 |  | 
CNC(=O)c1cc(-n2ncnc2[C@H](C)Nc2ncnc3c(I)cc(Cl)cc23)ncn1 [Compound P14, 6-[5-[(1S)-1-[(6-chloro-8-iodo-quinazolin-4-yl)amino]ethyl]-1,2,4-triazol-1-yl]-N-methyl-pyrimidine-4-carboxamide] |  | ≥ 80 | ≥ 80 | ≥ 80 |  | ≥ 80 | ≥ 80 | ≥ 80 | ≥ 80 |  |  |  |  | 
C[C@H](Nc1ncnc2c(I)cc(Cl)cc12)c1ncnn1-c1ncc(C(N)=O)s1 [Compound P29, 2-[5-[(1S)-1-[(6-chloro-8-iodo-quinazolin-4-yl)amino]ethyl]-1,2,4-triazol-1-yl]thiazole-5-carboxamide] |  | ≥ 80 | ≥ 80 | ≥ 80 |  | ≥ 80 | ≥ 80 |  | ≥ 80 |  |  |  |  | 
C[C@@H](c1ncnn1-c1cc(C(N)=O)ncn1)N(C)c1ncnc2c(C(F)(F)F)cc(Cl)cc12 [Compound P50, 6-[5-[(1S)-1-[[6-chloro-8-(trifluoromethyl)quinazolin-4-yl]-methyl-amino]ethyl]-1,2,4-triazol-1-yl]pyrimidine-4-carboxamide] | ≥ 80 | ≥ 80 | ≥ 80 | ≥ 80 |  | ≥ 80 | ≥ 80 | ≥ 80 |  |  |  |  | ≥ 80 | ≥ 80
C[C@@H](c1ncnn1-c1cc(C(=O)NCCC#N)ncn1)N(C)c1ncnc2c(C(F)(F)F)cc(Cl)cc12 [Compound P53, 6-[5-[(1S)-1-[[6-chloro-8-(trifluoromethyl)quinazolin-4-yl]-methyl-amino]ethyl]-1,2,4-triazol-1-yl]-N-(2-cyanoethyl)pyrimidine-4-carboxamide] |  | ≥ 80 | ≥ 80 | ≥ 80 | ≥ 80 | ≥ 80 | ≥ 80 | ≥ 80 |  |  |  |  |  | 
C[C@H](Nc1ncnc2c(C(F)(F)F)cc(Cl)cc12)c1ncnn1-c1cnc(C(=O)NCC#N)cn1 [Compound P71] |  | ≥ 80 | ≥ 80 | ≥ 80 |  | ≥ 80 | ≥ 80 |  |  |  |  |  |  | ≥ 80
